Reference: ChEMBL document CHEMBL1132455, “Retention of immunosuppressant activity in an ascomycin analogue lacking a hydrogen-bonding interaction with FKBP12” (J Med Chem, 1999)

Assays:
Rattus norvegicus = test: The compound was tested in vivo for lympho-proliferation,against popliteal lymph node(inbred male rats) after i.p. administration; type: functional; conditions: ip
Homo sapiens [1] = species on record: Homo sapiens; test: Immunosuppressive activity examined in an in vitro model of allogenic T-lymphocyte activation (by MLR assay); type: functional
Homo sapiens [2] = species on record: Homo sapiens; test: Immunosuppressive activity examined in an in vitro model of allogenic T-lymphocyte activation(by MLR assay); type: functional
[3] = biological target: Peptidyl-prolyl cis-trans isomerase FKBP1A (Homo sapiens, UniProt P62942); test: The compound was tested for binding affinity against human FK506 binding protein 12
Peptidyl-prolyl cis-trans isomerase FKBP1A, sequence (P62942 whole entry): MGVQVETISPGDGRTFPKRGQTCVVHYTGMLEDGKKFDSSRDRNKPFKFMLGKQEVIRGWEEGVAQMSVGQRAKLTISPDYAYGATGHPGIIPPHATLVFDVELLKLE

IC50 (Homo sapiens [1])	IC50 (Homo sapiens [2])	IC50 [3]	SMILES	ED50 (Rattus norvegicus)
0.26 nM	–	–	CC[C@@H]1/C=C(\C)C[C@H](C)C[C@H](OC)[C@H]2O[C@@](O)(C(=O)C(=O)N3CCCC[C@H]3C(=O)O[C@H](/C(C)=C/[C@@H]3CC[C@@H](O)[C@H](OC)C3)[C@H](C)[C@@H](O)CC1=O)[C@H](C)C[C@@H]2OC [ASCOMYCIN]	0.32 mg/kg/day
0.23 nM	–	–	C=CC[C@@H]1/C=C(\C)C[C@H](C)C[C@H](OC)[C@H]2O[C@@](O)(C(=O)C(=O)N3CCCC[C@H]3C(=O)O[C@H](/C(C)=C/[C@@H]3CC[C@@H](O)[C@H](OC)C3)[C@H](C)[C@@H](O)CC1=O)[C@H](C)C[C@@H]2OC [TACROLIMUS ANHYDROUS]	0.15 mg/kg/day
–	22 nM	529 nM	CC[C@@H]1/C=C(\C)C[C@H](C)C[C@H](OC)[C@H]2O[C@@](O)(C(=O)C(=O)N3CCCC[C@H]3C(=O)O[C@H](/C(C)=C/[C@@H]3CC[C@@H](O)[C@H](OC)C3)[C@H](C)/C=C/C1=O)[C@H](C)C[C@@H]2OC	–
0.15 nM	–	0.77 nM	CC[C@@H]1/C=C(\C)C[C@H](C)C[C@H](OC)[C@H]2O[C@@](O)(C(=O)C(=O)N3CCCC[C@H]3C(=O)O[C@H](/C(C)=C/[C@@H]3CC[C@@H](O)[C@H](OC)C3)[C@H](C)CCC1=O)[C@H](C)C[C@@H]2OC	0.65 mg/kg/day
